One compound from BindingDB's records for doi:10.1021/jm801306g (University of Alberta, 2009) can be followed below.

In assay [1] the target is Trypanothione reductase (Trypanosoma cruzi, UniProt P28593). Description: TryR Enzyme Inhibition Assay. The conditions noted are these: pH 7.5; 22 °C. The procedure: (§1) Inhibition of TryR was carried out in 96-well plates using a Biotek Precision 2000 automated liquid handler. Reaction was initiated by addition of NADPH to the assay mixtures contained TryR , trypanothione disulfide substrate, and inhibitor (100 uM to 10 nM in 3-fold serial dilutions). […] Raw data was processed using Microsoft Excel. Grafit 5.0 (Erithacus software) was used to fit the data to a three-parameter equation to determine IC50 values. IC50 determinations were carried out in triplicate for each compound and the mean weighted to standard error calculated.
Chain of Trypanothione reductase (Trypanosoma cruzi, UniProt P28593) (P28593 whole entry): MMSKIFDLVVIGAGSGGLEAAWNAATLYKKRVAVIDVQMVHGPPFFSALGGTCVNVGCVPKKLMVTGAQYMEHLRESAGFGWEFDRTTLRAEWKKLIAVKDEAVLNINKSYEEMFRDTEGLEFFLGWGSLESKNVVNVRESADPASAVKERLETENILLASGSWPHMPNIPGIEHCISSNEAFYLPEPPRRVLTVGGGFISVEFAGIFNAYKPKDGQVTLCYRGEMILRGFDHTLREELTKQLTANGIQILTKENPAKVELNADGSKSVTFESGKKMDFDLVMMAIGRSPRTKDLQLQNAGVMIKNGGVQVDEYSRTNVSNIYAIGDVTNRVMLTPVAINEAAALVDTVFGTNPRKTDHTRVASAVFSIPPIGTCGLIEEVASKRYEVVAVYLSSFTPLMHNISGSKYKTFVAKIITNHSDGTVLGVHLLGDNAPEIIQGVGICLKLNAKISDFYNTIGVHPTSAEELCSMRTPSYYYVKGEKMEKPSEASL

The target in assay [2] is Trypanothione reductase (Trypanosoma brucei brucei, UniProt P39051). Description: TryR Enzyme Inhibition Assay. The procedure: as §1
Chain of Trypanothione reductase (Trypanosoma brucei brucei, UniProt P39051) (P39051 whole entry): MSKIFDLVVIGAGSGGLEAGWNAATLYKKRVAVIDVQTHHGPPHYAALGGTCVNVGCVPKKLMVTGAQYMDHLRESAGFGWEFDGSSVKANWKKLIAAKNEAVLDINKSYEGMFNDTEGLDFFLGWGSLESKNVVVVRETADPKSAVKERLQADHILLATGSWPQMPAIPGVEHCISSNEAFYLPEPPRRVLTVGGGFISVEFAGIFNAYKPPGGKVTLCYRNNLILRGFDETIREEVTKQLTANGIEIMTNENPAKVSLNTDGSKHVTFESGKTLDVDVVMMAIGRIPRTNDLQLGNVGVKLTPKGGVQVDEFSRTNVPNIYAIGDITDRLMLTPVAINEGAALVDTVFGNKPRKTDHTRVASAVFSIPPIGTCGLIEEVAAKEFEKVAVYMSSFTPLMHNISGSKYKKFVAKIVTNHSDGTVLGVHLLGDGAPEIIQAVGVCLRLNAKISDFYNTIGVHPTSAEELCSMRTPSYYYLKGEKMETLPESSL

SMILES strings stand for the structures. pIC50: −log10 of the molar value.

In the case of `C[N+]1(Cc2ccccc2)CCC(NC=C2C(=O)NC(=O)N(C3CCCCC3)C2=O)CC1` (configuration not stated) [1-benzyl-4-[(E)-[(1-cyclohexyl-2,4,6-trioxo-1,3-diazinan-5-yl)methylidene]amino]-1-methylpiperidin-1-ium], the negative-log IC50 (pIC50) at Trypanothione reductase [1] was 4.34; against Trypanothione reductase [2] it was less than 4.00.
